Data taken from the NIST ThermoML archive (doi:10.1021/je060092t).

Test: cn = amount concentration of the nth substance listed, in mol/dm3
Conditions: Liquid, Taylor dispersion method

| binary diffusion coefficient (298.15 K, c1 = 0.1) | binary diffusion coefficient (298.15 K, c1 = 0.002) | binary diffusion coefficient (298.15 K, c1 = 0.004) | binary diffusion coefficient (298.15 K, c1 = 0.006) | binary diffusion coefficient (298.15 K, c1 = 0.008) | binary diffusion coefficient (303.15 K, c1 = 0.002) | binary diffusion coefficient (303.15 K, c1 = 0.004) | binary diffusion coefficient (303.15 K, c1 = 0.006) | binary diffusion coefficient (303.15 K, c1 = 0.008) | binary diffusion coefficient (308.15 K, c1 = 0.002) | binary diffusion coefficient (308.15 K, c1 = 0.004) | binary diffusion coefficient (308.15 K, c1 = 0.006) | binary diffusion coefficient (308.15 K, c1 = 0.008) | binary diffusion coefficient (312.15 K, c1 = 0.002) | binary diffusion coefficient (312.15 K, c1 = 0.004) | binary diffusion coefficient (312.15 K, c1 = 0.006) | binary diffusion coefficient (312.15 K, c1 = 0.008) | Compound |
| --- | --- | --- | --- | --- | --- | --- | --- | --- | --- | --- | --- | --- | --- | --- | --- | --- | --- |
| 5.26e-10 m2/s |  |  |  |  |  |  |  |  |  |  |  |  |  |  |  |  | OC[C@H]1O[C@@](CO)(O[C@H]2O[C@H](CO)[C@@H](O)[C@H](O)[C@H]2O)[C@@H](O)[C@@H]1O [D-sucrose] + O |
| 1.81e-09 m2/s |  |  |  |  |  |  |  |  |  |  |  |  |  |  |  |  | [Cl-].[K+] [potassium chloride] + O |
|  | 3.24e-10 m2/s | 3.23e-10 m2/s | 3.21e-10 m2/s | 3.18e-10 m2/s | 3.89e-10 m2/s | 3.88e-10 m2/s | 3.81e-10 m2/s | 3.78e-10 m2/s | 4.3e-10 m2/s | 4.28e-10 m2/s | 4.27e-10 m2/s | 4.23e-10 m2/s | 4.56e-10 m2/s | 4.54e-10 m2/s | 4.54e-10 m2/s | 4.53e-10 m2/s | OC[C@H]1O[C@@H]2O[C@H]3[C@H](O)[C@@H](O)[C@@H](O[C@H]4[C@H](O)[C@@H](O)[C@@H](O[C@H]5[C@H](O)[C@@H](O)[C@@H](O[C@H]6[C@H](O)[C@@H](O)[C@@H](O[C@H]7[C@H](O)[C@@H](O)[C@@H](O[C@H]8[C@H](O)[C@@H](O)[C@@H](O[C@H]1[C@H](O)[C@H]2O)O[C@@H]8CO)O[C@@H]7CO)O[C@@H]6CO)O[C@@H]5CO)O[C@@H]4CO)O[C@@H]3CO [β-cyclodextrin] + O |
